Data reported in PubChem BioAssay (NCI).
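Protocol summary: plate cells (96-well), add compound at 5 concentrations, incubate 48 h, interpolate endpoints linearly. The concentration for 50% growth inhibition is given as GI50. TGI: total growth inhibition.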

Legend:
Experiment in all cases: NCI tumour cell line growth inhibition, 48 h
786-0 renal = tested on: 786-0 renal
A498 renal = tested on: A498 renal
A549 NSCLC = tested on: A549 NSCLC
ACHN renal = tested on: ACHN renal
BT-549 breast = tested on: BT-549 breast
CAKI-1 renal = tested on: CAKI-1 renal
CCRF-CEM leukemia = tested on: CCRF-CEM leukemia
COLO 205 colon = tested on: COLO 205 colon
DU-145 prostate = tested on: DU-145 prostate
EKVX NSCLC = tested on: EKVX NSCLC
HCC-2998 colon = tested on: HCC-2998 colon
HCT-116 colon = tested on: HCT-116 colon
HCT-15 colon = tested on: HCT-15 colon
HL-60(TB) leukemia = tested on: HL-60(TB) leukemia
HOP-62 NSCLC = tested on: HOP-62 NSCLC
HOP-92 NSCLC = tested on: HOP-92 NSCLC
HS 578T breast = tested on: HS 578T breast
HT29 colon = tested on: HT29 colon
IGROV1 ovarian = tested on: IGROV1 ovarian
K-562 leukemia = tested on: K-562 leukemia
KM12 colon = tested on: KM12 colon
LOX IMVI melanoma = tested on: LOX IMVI melanoma
M14 melanoma = tested on: M14 melanoma
MCF7 breast = tested on: MCF7 breast
MDA-MB-231 breast = tested on: MDA-MB-231 breast
MDA-MB-435 = tested on: MDA-MB-435
MOLT-4 leukemia = tested on: MOLT-4 leukemia
NCI-H226 lung = tested on: NCI-H226 lung
NCI-H23 lung = tested on: NCI-H23 lung
NCI-H460 lung = tested on: NCI-H460 lung
NCI-H522 lung = tested on: NCI-H522 lung
NCI/ADR-RES ovarian = tested on: NCI/ADR-RES ovarian
OVCAR-3 ovarian = tested on: OVCAR-3 ovarian
OVCAR-4 ovarian = tested on: OVCAR-4 ovarian
OVCAR-5 ovarian = tested on: OVCAR-5 ovarian
OVCAR-8 ovarian = tested on: OVCAR-8 ovarian
PC-3 prostate = tested on: PC-3 prostate
RPMI-8226 leukemia = tested on: RPMI-8226 leukemia
SF-268 CNS = tested on: SF-268 CNS
SF-295 CNS = tested on: SF-295 CNS
SK-MEL-2 melanoma = tested on: SK-MEL-2 melanoma
SK-MEL-28 melanoma = tested on: SK-MEL-28 melanoma
SK-MEL-5 melanoma = tested on: SK-MEL-5 melanoma
SN12C renal = tested on: SN12C renal
SNB-19 CNS = tested on: SNB-19 CNS
SNB-75 CNS = tested on: SNB-75 CNS
SR leukemia = tested on: SR leukemia
SW-620 colon = tested on: SW-620 colon
TK-10 renal = tested on: TK-10 renal
U251 CNS = tested on: U251 CNS
UACC-257 melanoma = tested on: UACC-257 melanoma
UACC-62 melanoma = tested on: UACC-62 melanoma
UO-31 renal = tested on: UO-31 renal
MALME-3M melanoma = tested on: MALME-3M melanoma
RXF 393 renal = tested on: RXF 393 renal
SF-539 CNS = tested on: SF-539 CNS
SK-OV-3 ovarian = tested on: SK-OV-3 ovarian
T-47D breast = tested on: T-47D breast

## COc1ccc(/C=C(/C(=O)N2CCCCC2)c2cc(OC)c(OC)c(OC)c2)cc1
786-0 renal
  GI50: 0.404 µM
  TGI: > 100 µM
A498 renal
  GI50: 0.682 µM
  TGI: 71.7 µM
A549 NSCLC
  GI50: 1.5 µM
  TGI: > 100 µM
ACHN renal
  GI50: 0.713 µM
  TGI: > 100 µM
BT-549 breast
  GI50: 0.417 µM
  TGI: 29.9 µM
CAKI-1 renal
  GI50: 0.492 µM
  TGI: > 100 µM
CCRF-CEM leukemia
  GI50: 1.17 µM
  TGI: > 100 µM
COLO 205 colon
  GI50: 0.664 µM
  TGI: 4.9 µM
DU-145 prostate
  GI50: 1.5 µM
  TGI: 17.3 µM
EKVX NSCLC
  GI50: 3.4 µM
  TGI: > 100 µM
HCC-2998 colon
  GI50: 2.82 µM
  TGI: > 100 µM
HCT-116 colon
  GI50: 0.379 µM
  TGI: > 100 µM
HCT-15 colon
  GI50: 0.579 µM
  TGI: > 100 µM
HL-60(TB) leukemia
  GI50: 0.441 µM
  TGI: 4.1 µM
HOP-62 NSCLC
  GI50: 0.911 µM
  TGI: > 100 µM
HOP-92 NSCLC
  GI50: 12.4 µM
  TGI: > 100 µM
HS 578T breast
  GI50: 0.966 µM
  TGI: > 100 µM
HT29 colon
  GI50: 0.412 µM
  TGI: > 100 µM
IGROV1 ovarian
  GI50: 0.699 µM
  TGI: > 100 µM
K-562 leukemia
  GI50: 0.452 µM
  TGI: > 100 µM
KM12 colon
  GI50: 0.482 µM
  TGI: > 100 µM
LOX IMVI melanoma
  GI50: 1.04 µM
  TGI: > 100 µM
M14 melanoma
  GI50: 0.478 µM
  TGI: > 100 µM
MCF7 breast
  GI50: 0.454 µM
  TGI: > 100 µM
MDA-MB-231 breast
  GI50: 4.54 µM
  TGI: > 100 µM
MDA-MB-435
  GI50: 0.257 µM
  TGI: 0.935 µM
MOLT-4 leukemia
  GI50: 2.06 µM
  TGI: > 100 µM
NCI-H226 lung
  GI50: 3.4 µM
  TGI: > 100 µM
NCI-H23 lung
  GI50: 3.88 µM
  TGI: > 100 µM
NCI-H460 lung
  GI50: 0.497 µM
  TGI: > 100 µM
NCI-H522 lung
  GI50: 1.7 µM
  TGI: > 100 µM
NCI/ADR-RES ovarian
  GI50: 1.15 µM
  TGI: > 100 µM
OVCAR-3 ovarian
  GI50: 0.325 µM
  TGI: 1.52 µM
OVCAR-4 ovarian
  GI50: 18 µM
  TGI: > 100 µM
OVCAR-5 ovarian
  GI50: 5.26 µM
  TGI: > 100 µM
OVCAR-8 ovarian
  GI50: 6.12 µM
  TGI: > 100 µM
PC-3 prostate
  GI50: 0.527 µM
  TGI: > 100 µM
RPMI-8226 leukemia
  GI50: 4.13 µM
  TGI: > 100 µM
SF-268 CNS
  GI50: 1.79 µM
  TGI: > 100 µM
SF-295 CNS
  GI50: 0.422 µM
  TGI: > 100 µM
SK-MEL-2 melanoma
  GI50: 0.967 µM
  TGI: > 100 µM
SK-MEL-28 melanoma
  GI50: 8.89 µM
  TGI: > 100 µM
SK-MEL-5 melanoma
  GI50: 0.753 µM
  TGI: 43.9 µM
SN12C renal
  GI50: 4.52 µM
  TGI: > 100 µM
SNB-19 CNS
  GI50: 0.946 µM
  TGI: > 100 µM
SNB-75 CNS
  GI50: 0.483 µM
  TGI: > 100 µM
SR leukemia
  GI50: 0.593 µM
  TGI: > 100 µM
SW-620 colon
  GI50: 0.506 µM
  TGI: > 100 µM
TK-10 renal
  GI50: > 100 µM
  TGI: > 100 µM
U251 CNS
  GI50: 1.48 µM
  TGI: > 100 µM
UACC-257 melanoma
  GI50: > 100 µM
  TGI: > 100 µM
UACC-62 melanoma
  GI50: 0.44 µM
  TGI: > 100 µM
UO-31 renal
  GI50: 4.76 µM
  TGI: > 100 µM

## O=C(OCc1ccccc1)c1nc2ccccc2n1S(=O)(=O)c1ccccc1
786-0 renal
  TGI: > 100 µM
A498 renal
  TGI: > 100 µM
A549 NSCLC
  TGI: > 100 µM
ACHN renal
  TGI: > 100 µM
BT-549 breast
  TGI: > 100 µM
CAKI-1 renal
  TGI: > 100 µM
CCRF-CEM leukemia
  TGI: > 100 µM
COLO 205 colon
  TGI: > 100 µM
DU-145 prostate
  TGI: > 100 µM
EKVX NSCLC
  TGI: > 100 µM
HCC-2998 colon
  TGI: > 100 µM
HCT-116 colon
  TGI: > 100 µM
HCT-15 colon
  TGI: > 100 µM
HL-60(TB) leukemia
  TGI: > 100 µM
HOP-62 NSCLC
  TGI: > 100 µM
HOP-92 NSCLC
  TGI: > 100 µM
HS 578T breast
  TGI: > 100 µM
HT29 colon
  TGI: > 100 µM
IGROV1 ovarian
  TGI: > 100 µM
K-562 leukemia
  TGI: > 100 µM
KM12 colon
  TGI: > 100 µM
LOX IMVI melanoma
  TGI: > 100 µM
M14 melanoma
  TGI: > 100 µM
MALME-3M melanoma
  TGI: > 100 µM
MDA-MB-231 breast
  TGI: > 100 µM
MDA-MB-435
  TGI: > 100 µM
MOLT-4 leukemia
  TGI: > 100 µM
NCI-H226 lung
  TGI: > 100 µM
NCI-H23 lung
  TGI: > 100 µM
NCI-H460 lung
  TGI: > 100 µM
NCI/ADR-RES ovarian
  TGI: > 100 µM
OVCAR-3 ovarian
  TGI: > 100 µM
OVCAR-4 ovarian
  TGI: > 100 µM
OVCAR-5 ovarian
  TGI: > 100 µM
OVCAR-8 ovarian
  TGI: > 100 µM
PC-3 prostate
  TGI: > 100 µM
RPMI-8226 leukemia
  TGI: > 100 µM
RXF 393 renal
  TGI: > 100 µM
SF-268 CNS
  TGI: > 100 µM
SF-295 CNS
  TGI: > 100 µM
SF-539 CNS
  TGI: > 100 µM
SK-MEL-2 melanoma
  TGI: > 100 µM
SK-MEL-28 melanoma
  TGI: > 100 µM
SK-MEL-5 melanoma
  TGI: > 100 µM
SK-OV-3 ovarian
  TGI: > 100 µM
SN12C renal
  TGI: > 100 µM
SNB-19 CNS
  TGI: > 100 µM
SNB-75 CNS
  TGI: > 100 µM
SW-620 colon
  TGI: > 100 µM
T-47D breast
  TGI: > 100 µM
TK-10 renal
  TGI: > 100 µM
U251 CNS
  TGI: > 100 µM
UACC-257 melanoma
  TGI: > 100 µM
UACC-62 melanoma
  TGI: > 100 µM
UO-31 renal
  TGI: > 100 µM
